We go through one compound from US7989165B2, “Tape stripping methods for analysis of skin disease and pathological skin state” (DermTech International, priority 2004, dated 2011).

Where “and” joins values, the source holds several entries; their conditions need not be identical. Equal entries are not always repeated. Marks after values point to notes of the source that are not given here.

For test [1], the system named is gene expression levels in skin. In words: DNA microarray (Affymetrix HG-U133A GeneChip) of tape-harvested RNA, untreated vs water vs SLS-occluded skin. It counts as in vivo, human. The note with it: threshold p=0.003, PPDE(p) 0.99. An excerpt: Clinical protocols: The study protocols were reviewed and approved by an independent IRB (BioMed IRB, San Diego) and all subjects signed informed consent. Ten healthy women, ages 21-55 were enrolled in the study. Regions of unblemished, normal appearing skin on the mid back were chosen for the application of 2 occlusive patches in the form of bandages approximately 4 cm×6.5 cm. The bandages were made using a clear, non-porous plastic hypoallergenic adhesive tape. In the center of this tape was a Webril (non-woven cotton) patch measuring approximately 2 cm×4.5 cm. One Webril patch contained 0.6 ml of 1% aqueous sodium lauryl sulfate and the other contained 0.6 ml of sterile water as the vehicle control. […] At 24 hours post application, the SLS and water patches were removed and the skin allowed to air dry for 15 minutes before scoring. The sites were scored by a trained technician using the scale provided below. Patched sites were large enough that two areas could be tape harvested without overlap and room left for a shave biopsy (˜2×2 mm). Skin sites were tape stripped with 4 tapes each and then a shave biopsy taken under local anesthetic (lidocaine HCl 1% and epinephrine 1:100,000; Abbott Laboratories). […] In a second study, 3 subjects had 3 patches containing 1% SLS and 3 water patches applied to the mid back for 24 hours: Patches were removed, scored and tape stripped as above. […]

In test [2] the test system is IL-1β mRNA. In words: Semi-quantitative RT-PCR of IL-1β mRNA relative to β-actin in SLS-occluded skin (tape and biopsy). It counts as in vivo, human. The text has this: Clinical protocols: The study protocols were reviewed and approved by an independent IRB (BioMed IRB, San Diego) and all subjects signed informed consent. […] The bandages were made using a clear, non-porous plastic hypoallergenic adhesive tape. […] The sites were scored by a trained technician using the scale provided below. […] Abbott Laboratories). […] An area of uninvolved skin was tape harvested and shave biopsied in an identical manner. […] The following grading scale was used: 0, no visible reaction; 1, slight, pink, patchy erythema; 2, mild confluent, pink erythema; 3, moderate erythema (definite redness) with edema; 4, strong erythema (very intense redness) with edema. […] Patches were removed, scored and tape stripped as above. In a third study, two individuals were tape stripped on uninvolved skin on the upper back at three adjacent sites as above. RNA harvested in these last two studies was used in the DNA microarray experiments described below. Isolation of RNA: […] Extraction was performed using the manufacturer's directions and included a Proteinase K digestion, sonication of tapes and “on-column” DNase I digestion. […] Extraction of biopsies was performed with the same kit according to the manufacturer's instructions. Quantitative RT-PCR: 10 μl of RNA was reverse transcribed (RT) into cDNA with the Sensiscript Reverse Transcriptase kit and random hexamers in a final volume of […] according to the manufacturer's directions. […] All RT-reactions were amplified using 2 replicates and were negative (data not shown). Amplification and detection of specific mRNA: Specific mRNAs were converted to cDNA as described above. […] Amplification and detection assays were performed using TaqMan Pre-Developed Assay Reagents (PDAR; […] GAPDH mRNA assays were done in singleplex format. Thermal cycling conditions were: prior to cycling, two minutes at 50° C., then ten minutes at 95° C.; then 40 cycles at 95° C. for 15 seconds and 60° C. for 60 seconds. […] Semi-quantitation of mRNA using the ΔΔCt method: In this Example the comparative or ΔΔCt method of calculating relative gene expression levels between two samples, was used. In the ΔΔCt method the levels of IL-1β, IL-8 and GAPDH mRNAs are assayed semi-quantitatively by normalization to β-actin mRNA to create a ratio of (mRNAx)/(β-actin) mRNA for each RNA sample. This ratio is then further normalized to a control sample (a process called “calibration”; (Applied Biosystems 2001)). When comparing the ratio of mRNAx to β-actin mRNA between two different samples, it is implicitly assumed that the level of β-actin mRNA to total RNA is constant between the two samples (i.e. it is an unchanging housekeeping gene). […] The Ct values are the experimentally determined number of PCR cycles required to achieve a threshold fluorescence (statistically significant increase in fluorescence over background) for mRNAx and β-actin mRNA (Gibson, Heid et al. 1996; Heid, Stevens et al. 1996). Calculation of fold-increase and data analysis: Key to the method used to measure mRNA is the fact that the quantity of specific mRNA directly correlates with the number of cycles needed to reach threshold fluorescence, thus the fewer the number of cycles (the lower the Ct), the more mRNA is initially present. As described above, experimental data is reported as the number of cycles (Ct) required to reach a threshold fluorescence. […] The significance of ΔCt values (Tables I and IV) was determined by applying a two-sided, paired t-test. […]

Where [3] appears, read: SLS-occluded skin vs uninvolved skin.

Regarding `CCCCCCCCCCCCOS(=O)(=O)[O-].[Na+]` [SLS, sodium lauryl sulfate], in test [1], the “number of genes differentially expressed, SLS vs water treated” value is 1,364 genes. Besides, the “fold-change in IL-1β/β-actin mRNA ratio, Biopsy” value in test [2] (SLS-occluded skin relative to uninvolved skin, biopsy samples, per subject, > = minimum estimate, sulfate) is >15**^† fold and >3.3** fold and >8**^† fold and >34**^† fold and >11**^† fold and 56**^† fold and >53**^† fold and 2.2** fold and 1 fold and >28**^† fold. In test [2] (SLS-occluded skin relative to uninvolved skin, tape samples, per subject, > = minimum estimate, sulfate), the “fold-change in IL-1β/β-actin mRNA ratio, Tape” value was 18**^† fold and >0.44 fold and >8.1**^† fold and >1.9** fold and >5** fold and >1.4 fold and >7.3**^† fold. For the same compound, in test [2] (setting [3]), the “biopsy samples with significantly elevated IL-1β/β-actin mRNA ratio” value is listed as 9 of 10 and the “tape-harvested samples with significant increases in IL-1β/β-actin mRNA” value was 5 of 10. In addition, the “SLS-treated biopsy samples with significant increases in IL-1β/actin mRNA ratio calibrated to the water-treated site” value in test [2] (of 10 biopsy samples) is given as 7 samples.
